Measurements taken from BindingDB's records for PubMed 35189320 (Dr.Vishwanath Karad MIT World Peace University, 2022).

Target: Sterol O-acyltransferase 1 (Homo sapiens) (UniProt P35610)
Test: Inhibition of human ACAT1 in HepG2 cells assessed as inhibition of […] synthesis incubated for 1 hrs followed by 13C-addition of 13C-oleic acid pre-complexed with fatty acid free BSA for 6 hrs by LC/MS/MS analysis

Chain of Sterol O-acyltransferase 1 (Homo sapiens) (P35610 whole entry, looked up): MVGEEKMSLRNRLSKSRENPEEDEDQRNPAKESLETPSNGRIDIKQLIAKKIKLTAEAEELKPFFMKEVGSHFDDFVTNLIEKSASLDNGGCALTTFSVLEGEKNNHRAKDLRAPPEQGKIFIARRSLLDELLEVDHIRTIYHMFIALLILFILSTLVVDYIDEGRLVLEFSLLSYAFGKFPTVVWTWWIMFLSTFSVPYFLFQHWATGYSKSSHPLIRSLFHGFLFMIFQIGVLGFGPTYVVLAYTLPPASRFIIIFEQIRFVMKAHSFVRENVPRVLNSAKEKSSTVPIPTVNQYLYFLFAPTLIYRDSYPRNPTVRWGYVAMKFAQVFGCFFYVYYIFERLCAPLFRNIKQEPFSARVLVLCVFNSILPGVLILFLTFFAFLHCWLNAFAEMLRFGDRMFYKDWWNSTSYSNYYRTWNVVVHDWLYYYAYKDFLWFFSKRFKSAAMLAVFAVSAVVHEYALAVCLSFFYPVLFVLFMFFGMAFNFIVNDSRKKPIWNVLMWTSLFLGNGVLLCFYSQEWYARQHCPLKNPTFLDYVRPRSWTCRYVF

SMILES: O=C(O)CC1CCC2(CC1)CCN(c1ccc(NC(=O)c3nnc(Nc4ccc(F)c(F)c4)o3)cn1)CC2
- IC50: 45 nM

SMILES: O=C(Nc1ccc(N2CCC3(CC2)CC(C(=O)O)C3)nc1)c1nnc(Nc2ccc(F)c(F)c2)o1
- IC50: 2500 nM
